# Laboratory results taken from patent publication US12377076B2, “Compounds for treating lymphoma or a T-cell malignant disease” (Purdue Pharma L.P., priority 2018, dated 2025).
# Several values for one entry are separate records, joined by “and”; a condition that tells them apart may be missing. Identical values can stand only once.
# Legend:
# Format in all cases: in vivo, human
# [1] = tested on: patients with relapsed/refractory hematologic malignancies; assay: Tumour assessment: response to treatment, all HM; details: all 46 patients
# Excerpt: Response to treatment included evaluation of overall response rate (patients with a CR plus patients with a PR), clinical benefit (CB) rate (patients with CR plus patients with PR plus patients with stable disease (SD)), progression free survival, and overall survival according to the relevant response criteria.
# lymphocytes = assay: PK/PD safety modelling: dose-nadir relationship of blood cell counts, lymphocytes; details: (% CV) in table
# Excerpt: (§1) The obtained exposure parameters (Cmax and AUC) and PK profiles from individual patients and the respective haematological laboratory data were collected over the treatment duration and analysed regarding the relationship to peripheral blood cell counts (lymphocytes, neutrophils, platelets).
# (§2) The nadir was defined as the lowest blood cell count observed after the first administration. The nadir was extracted irrespective of the treatment duration, thus, the analysis data set included patients who received only one dose and patients who received multiple treatment cycles with tinostamustine. The baseline blood cell count, which was the count before the first administration, was included in the analysis as the cell count at dose, Cmax or AUC equal to 0. Thus, it was assumed that the baseline blood cell count was the effect level without treatment with tinostamustine. With an exploratory analysis all observations each predictor-nadir relationship was fitted with a least-squares method in R. The dose-nadir relationship was further investigated with a non-linear mixed effects approach. The advantage of the non-linear mixed effects approach compared to the exploratory analysis was that different external and patient factors could be investigated at the same time and the between patient variability can be described. […]
# platelets = assay: PK/PD safety modelling: dose-nadir relationship of blood cell counts, platelets; details: (% CV) in table
# Excerpt: as §1, §2
structure (smiles),measurement,setting,value
Cn1c(CCCCCCC(=O)NO)nc2cc(N(CCCl)CCCl)ccc21 [tinostamustine],best response complete response (CR),[1],7%
same,best response of PD,[1],41%
same,best response partial response (PR),[1],21%
same,clinical benefit rate (CBR),[1],45%
same,overall response rate (ORR),[1],28%
same,EC50 (dose required to reduce the cell count by 50%),lymphocytes,28.3 mg/m^2 and 28.3 (40%) mg/m^2
same,EC50 (dose required to reduce the cell count by 50%),platelets,55.5 mg/m^2 and 55.5 (72%) mg/m^2
